Patent US8629159B2, “Thiazolidinedione analogues” (Metabolic Solutions Development Company, LLC, priority 2006, dated 2014)
Marks after values point to notes of the source that are not given here.

Assays:
[1] = test system: Male salt-sensitive Dahl rats; assay: Blood pressure (systolic and diastolic) and heart rate by telemetry in hypertensive Dahl rats; type: in vivo, rat; conditions: 24 hour average
Experimental: Direct blood pressure (systolic and diastolic) and heart rate was also measured by telemetry (Tables F—H and FIG. 4). Data in Tables F—H and depicted in FIGS. 4A-4C are 24 hour averages for the last 4 days before the start of the daily oral gavage of treatments (−4, −3, −2, −1) and for the days 1-17 during the treatments shown.

[2] = test system: Male salt-sensitive Dahl rats; assay: Fasting free fatty acids (FFA) and adiponectin in treated Dahl rats; type: in vivo, rat; conditions: 3 weeks treatment; 40 mg/kg compound 1, 20 mg/kg rosiglitazone
Experimental: Doses of these compounds were chosen to produce the same metabolic effects in terms of reduction of triglycerides and elevation of adiponectin (Table E). Direct blood pressure (systolic and diastolic) and heart rate was also measured by telemetry (Tables F—H and FIG. 4).

[3] = day 1 of treatment, rosiglitazone 20 mg/kg, compound 1 40 mg/kg
[4] = day 2 of treatment, rosiglitazone 20 mg/kg, compound 1 40 mg/kg
[5] = day 3 of treatment, rosiglitazone 20 mg/kg, compound 1 40 mg/kg
[6] = day 4 of treatment, rosiglitazone 20 mg/kg, compound 1 40 mg/kg
[7] = day 5 of treatment, rosiglitazone 20 mg/kg, compound 1 40 mg/kg
[8] = day 6 of treatment, rosiglitazone 20 mg/kg, compound 1 40 mg/kg
[9] = day 7 of treatment, rosiglitazone 20 mg/kg, compound 1 40 mg/kg
[10] = day 8 of treatment, rosiglitazone 20 mg/kg, compound 1 40 mg/kg
[11] = day 9 of treatment, rosiglitazone 20 mg/kg, compound 1 40 mg/kg
[12] = day 10 of treatment, rosiglitazone 20 mg/kg, compound 1 40 mg/kg
[13] = day 11 of treatment, rosiglitazone 20 mg/kg, compound 1 40 mg/kg
[14] = day 12 of treatment, rosiglitazone 20 mg/kg, compound 1 40 mg/kg
[15] = day 13 of treatment, rosiglitazone 20 mg/kg, compound 1 40 mg/kg
[16] = day 14 of treatment, rosiglitazone 20 mg/kg, compound 1 40 mg/kg
[17] = day 15 of treatment, rosiglitazone 20 mg/kg, compound 1 40 mg/kg
[18] = day 16 of treatment, rosiglitazone 20 mg/kg, compound 1 40 mg/kg
[19] = day 17 of treatment, rosiglitazone 20 mg/kg, compound 1 40 mg/kg
[20] = day −1, before start of treatment
[21] = day −2, before start of treatment
[22] = day −3, before start of treatment
[23] = day −4, before start of treatment

CN(CCOc1ccc(CC2SC(=O)NC2=O)cc1)c1ccccn1 (centres unmarked) [Rosiglitazone, reference compound]
Diastolic blood pressure measured by telemetry, Mean [1, 3]: 119
Heart rate measured by telemetry, Mean [1, 3]: 407 bpm
Diastolic blood pressure measured by telemetry, Mean [1, 4]: 121
Heart rate measured by telemetry, Mean [1, 4]: 402 bpm
Systolic blood pressure measured by telemetry, Mean [1, 4]: 172
Diastolic blood pressure measured by telemetry, Mean [1, 5]: 123
Heart rate measured by telemetry, Mean [1, 5]: 405 bpm
Systolic blood pressure measured by telemetry, Mean [1, 5]: 175
Diastolic blood pressure measured by telemetry, Mean [1, 6]: 124
Heart rate measured by telemetry, Mean [1, 6]: 399 bpm
Systolic blood pressure measured by telemetry, Mean [1, 6]: 177
Diastolic blood pressure measured by telemetry, Mean [1, 7]: 126
Heart rate measured by telemetry, Mean [1, 7]: 398 bpm
Systolic blood pressure measured by telemetry, Mean [1, 7]: 179
Diastolic blood pressure measured by telemetry, Mean [1, 8]: 126
Heart rate measured by telemetry, Mean [1, 8]: 398 bpm
Systolic blood pressure measured by telemetry, Mean [1, 8]: 179
Diastolic blood pressure measured by telemetry, Mean [1, 9]: 131
Heart rate measured by telemetry, Mean [1, 9]: 393 bpm
Systolic blood pressure measured by telemetry, Mean [1, 9]: 184
Diastolic blood pressure measured by telemetry, Mean [1, 10]: 135
Heart rate measured by telemetry, Mean [1, 10]: 401 bpm
Systolic blood pressure measured by telemetry, Mean [1, 10]: 188
Diastolic blood pressure measured by telemetry, Mean [1, 11]: 136
Heart rate measured by telemetry, Mean [1, 11]: 398 bpm
Systolic blood pressure measured by telemetry, Mean [1, 11]: 190
Heart rate measured by telemetry, Mean [1, 12]: 398 bpm
Systolic blood pressure measured by telemetry, Mean [1, 12]: 192
Heart rate measured by telemetry, Mean [1, 13]: 399 bpm
Systolic blood pressure measured by telemetry, Mean [1, 13]: 194
Heart rate measured by telemetry, Mean [1, 14]: 399 bpm
Systolic blood pressure measured by telemetry, Mean [1, 14]: 196
Heart rate measured by telemetry, Mean [1, 15]: 395 bpm
Systolic blood pressure measured by telemetry, Mean [1, 15]: 196
Heart rate measured by telemetry, Mean [1, 16]: 393 bpm
Systolic blood pressure measured by telemetry, Mean [1, 16]: 198
Heart rate measured by telemetry, Mean [1, 17]: 398 bpm
Systolic blood pressure measured by telemetry, Mean [1, 17]: 202
Heart rate measured by telemetry, Mean [1, 18]: 401 bpm
Systolic blood pressure measured by telemetry, Mean [1, 18]: 204
Heart rate measured by telemetry, Mean [1, 19]: 402 bpm
Systolic blood pressure measured by telemetry, Mean [1, 19]: 204
Diastolic blood pressure measured by telemetry, Mean [1, 20]: 124
Heart rate measured by telemetry, Mean [1, 20]: 395 bpm
Systolic blood pressure measured by telemetry, Mean [1, 20]: 173
Diastolic blood pressure measured by telemetry, Mean [1, 21]: 127
Heart rate measured by telemetry, Mean [1, 21]: 394 bpm
Systolic blood pressure measured by telemetry, Mean [1, 21]: 176
Diastolic blood pressure measured by telemetry, Mean [1, 22]: 124
Heart rate measured by telemetry, Mean [1, 22]: 400 bpm
Systolic blood pressure measured by telemetry, Mean [1, 22]: 171
Diastolic blood pressure measured by telemetry, Mean [1, 23]: 124
Heart rate measured by telemetry, Mean [1, 23]: 403 bpm
Systolic blood pressure measured by telemetry, Mean [1, 23]: 174
Adiponectin [2]: 36*
FFA [2]: 0.77*
